These results are taken from ChEMBL document CHEMBL1141381, “Alkynylpyrimidine amide derivatives as potent, selective, and orally active inhibitors of Tie-2 kinase” (J Med Chem, 2007).

Series [1] concerns the target Vascular endothelial growth factor receptor 2 (Homo sapiens, UniProt P35968).
Series [2] deals with Tyrosine-protein kinase Lck (Homo sapiens, UniProt P06239).
Series [3] can be described thus: Half life in Sprague-Dawley rat at 2 mg/kg, iv. The format is ADME, organism-based. Further details: dose 2 mg/kg, route intravenous. Particulars: in vivo.
Series [4] is described as follows: Oral bioavailability in Sprague-Dawley rat at 5 mg/kg, po. The format is ADME, organism-based. Particulars: in vivo.
The nature of series [5]: Clearance in Sprague-Dawley rat at 2 mg/kg, iv. The format is ADME, organism-based. Also on record: dose 2 mg/kg, route intravenous. The note with it: in vivo.
Series [6] can be described thus: AUC (0-infinity) in Sprague-Dawley rat at 5 mg/kg, po. The format is ADME, organism-based. Also on record: time infinity, dose 5 mg/kg, route oral. Particulars: plasma.
Series [7] is described as follows: Volume of distribution in Sprague-Dawley rat at 2 mg/kg, iv. The format is ADME, organism-based. Further details: dose 2 mg/kg, route intravenous. The note with it: in vivo, read-out: Vss.
Series [8] has as its target Hepatocyte growth factor receptor (Homo sapiens, UniProt P08581). Put plainly: Inhibition of c-Met.
Series [9] concerns the target Tyrosine-protein kinase CSK (Homo sapiens, UniProt P41240). Put plainly: Inhibition of CSK.
For series [10], the target named is Tyrosine-protein kinase Lyn (Homo sapiens, UniProt P07948). Briefly: Inhibition of Lyn.
The target of series [11] is Tyrosine-protein kinase Fes/Fps (Homo sapiens, UniProt P07332). Briefly: Inhibition of Fes.
Series [12] concerns the target Angiopoietin-1 receptor (Mus musculus) (UniProt Q02858). Briefly: Inhibition of angiopoietin-1-induced TIE2 phosphorylation in CD1 NU/NU mouse at 10 mg/kg. The format is functional, organism-based. Further details: dose 10 mg/kg.
Series [13] has the same target. Put plainly: Inhibition of angiopoietin-1-induced TIE2 phosphorylation in CD1 NU/NU mouse. The format is functional.
The target of series [14] is Mast/stem cell growth factor receptor Kit (Homo sapiens, UniProt P10721). Put plainly: Inhibition of c-Kit.
The nature of series [15]: Plasma protein binding in CD1 NU/NU mouse. The note with it: read-out: PPB (converted). The format is ADME, cell-free.
The target in series [16] is T1, Angiopoietin-1 receptor (Homo sapiens, UniProt Q02763).
T1 sequence (Q02763 whole entry): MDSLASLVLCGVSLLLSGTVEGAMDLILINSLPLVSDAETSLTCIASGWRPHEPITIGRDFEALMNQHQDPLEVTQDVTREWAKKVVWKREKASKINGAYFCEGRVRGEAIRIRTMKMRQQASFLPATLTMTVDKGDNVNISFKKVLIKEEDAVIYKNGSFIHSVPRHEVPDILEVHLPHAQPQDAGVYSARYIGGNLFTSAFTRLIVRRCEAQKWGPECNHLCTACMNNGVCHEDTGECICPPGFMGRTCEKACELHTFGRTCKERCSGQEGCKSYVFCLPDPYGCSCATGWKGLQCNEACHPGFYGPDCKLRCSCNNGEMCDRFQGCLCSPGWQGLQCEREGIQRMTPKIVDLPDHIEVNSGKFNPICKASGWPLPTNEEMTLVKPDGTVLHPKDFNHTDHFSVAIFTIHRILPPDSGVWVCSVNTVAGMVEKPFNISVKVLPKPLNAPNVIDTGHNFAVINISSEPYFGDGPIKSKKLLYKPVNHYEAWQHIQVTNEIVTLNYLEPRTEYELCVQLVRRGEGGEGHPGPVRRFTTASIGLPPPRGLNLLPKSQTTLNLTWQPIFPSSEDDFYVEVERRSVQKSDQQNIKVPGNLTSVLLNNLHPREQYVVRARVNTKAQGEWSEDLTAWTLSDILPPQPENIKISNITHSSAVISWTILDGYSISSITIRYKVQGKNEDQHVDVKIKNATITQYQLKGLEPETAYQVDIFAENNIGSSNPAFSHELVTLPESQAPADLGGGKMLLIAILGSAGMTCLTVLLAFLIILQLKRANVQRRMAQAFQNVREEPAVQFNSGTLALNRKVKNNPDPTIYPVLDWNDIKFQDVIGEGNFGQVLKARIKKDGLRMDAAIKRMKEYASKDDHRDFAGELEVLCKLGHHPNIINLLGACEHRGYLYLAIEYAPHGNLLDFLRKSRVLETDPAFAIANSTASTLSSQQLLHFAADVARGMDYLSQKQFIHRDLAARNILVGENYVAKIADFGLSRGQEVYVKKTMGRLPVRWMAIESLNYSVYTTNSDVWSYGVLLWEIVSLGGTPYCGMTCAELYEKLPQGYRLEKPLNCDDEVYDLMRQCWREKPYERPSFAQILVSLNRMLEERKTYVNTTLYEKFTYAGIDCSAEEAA
Description: Inhibition of TIE2 by HTRF assay
The target in series [17] is T1, Angiopoietin-1 receptor. Briefly: Inhibition of Ang1-stimulated TIE2 phosphorylation in EA.hy 926 endothelial cell line. The format is functional, cell-based.
The target of series [18] is T2, Tyrosine-protein kinase JAK3 (Homo sapiens, UniProt P52333).
T2 sequence (P52333 whole entry): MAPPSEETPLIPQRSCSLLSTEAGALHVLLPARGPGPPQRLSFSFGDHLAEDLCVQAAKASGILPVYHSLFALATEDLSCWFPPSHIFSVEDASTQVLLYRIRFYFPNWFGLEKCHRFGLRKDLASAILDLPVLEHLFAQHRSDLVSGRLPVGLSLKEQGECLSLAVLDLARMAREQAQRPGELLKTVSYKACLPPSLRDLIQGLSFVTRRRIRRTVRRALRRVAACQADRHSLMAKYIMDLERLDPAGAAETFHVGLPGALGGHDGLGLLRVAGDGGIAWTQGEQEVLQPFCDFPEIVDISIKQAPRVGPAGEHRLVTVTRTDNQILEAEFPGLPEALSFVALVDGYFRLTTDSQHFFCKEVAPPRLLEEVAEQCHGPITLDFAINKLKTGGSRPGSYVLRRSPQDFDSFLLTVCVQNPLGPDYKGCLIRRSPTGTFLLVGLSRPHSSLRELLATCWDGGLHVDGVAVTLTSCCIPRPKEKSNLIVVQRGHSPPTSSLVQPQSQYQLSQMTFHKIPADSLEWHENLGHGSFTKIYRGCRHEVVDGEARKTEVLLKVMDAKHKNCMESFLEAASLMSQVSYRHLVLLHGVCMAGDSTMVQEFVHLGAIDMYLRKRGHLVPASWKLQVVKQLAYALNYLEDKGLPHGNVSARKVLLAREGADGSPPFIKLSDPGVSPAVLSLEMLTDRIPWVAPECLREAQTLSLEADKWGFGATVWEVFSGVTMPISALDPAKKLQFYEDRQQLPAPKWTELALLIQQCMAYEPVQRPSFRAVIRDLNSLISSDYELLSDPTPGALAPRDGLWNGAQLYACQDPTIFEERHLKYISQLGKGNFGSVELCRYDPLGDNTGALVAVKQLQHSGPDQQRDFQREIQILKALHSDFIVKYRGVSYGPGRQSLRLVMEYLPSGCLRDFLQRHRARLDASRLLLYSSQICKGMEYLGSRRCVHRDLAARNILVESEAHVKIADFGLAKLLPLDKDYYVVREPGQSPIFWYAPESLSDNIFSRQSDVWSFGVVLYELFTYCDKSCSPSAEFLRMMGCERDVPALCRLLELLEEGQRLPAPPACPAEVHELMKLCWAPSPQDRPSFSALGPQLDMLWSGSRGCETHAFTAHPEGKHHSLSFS
Briefly: Inhibition of Jak3.

The test system of another series is Mus musculus. Briefly: Plasma concentration in CD1 NU/NU mouse at 10 mg/kg. The format is ADME, organism-based. Also on record: dose 10 mg/kg. The note with it: in vivo.
The target of a further series is Insulin receptor (Homo sapiens, UniProt P06213). Put plainly: Inhibition of INSR.
For series [19], the target named is T3, Tyrosine-protein kinase ITK/TSK (Homo sapiens, UniProt Q08881).
T3 sequence (Q08881 whole entry): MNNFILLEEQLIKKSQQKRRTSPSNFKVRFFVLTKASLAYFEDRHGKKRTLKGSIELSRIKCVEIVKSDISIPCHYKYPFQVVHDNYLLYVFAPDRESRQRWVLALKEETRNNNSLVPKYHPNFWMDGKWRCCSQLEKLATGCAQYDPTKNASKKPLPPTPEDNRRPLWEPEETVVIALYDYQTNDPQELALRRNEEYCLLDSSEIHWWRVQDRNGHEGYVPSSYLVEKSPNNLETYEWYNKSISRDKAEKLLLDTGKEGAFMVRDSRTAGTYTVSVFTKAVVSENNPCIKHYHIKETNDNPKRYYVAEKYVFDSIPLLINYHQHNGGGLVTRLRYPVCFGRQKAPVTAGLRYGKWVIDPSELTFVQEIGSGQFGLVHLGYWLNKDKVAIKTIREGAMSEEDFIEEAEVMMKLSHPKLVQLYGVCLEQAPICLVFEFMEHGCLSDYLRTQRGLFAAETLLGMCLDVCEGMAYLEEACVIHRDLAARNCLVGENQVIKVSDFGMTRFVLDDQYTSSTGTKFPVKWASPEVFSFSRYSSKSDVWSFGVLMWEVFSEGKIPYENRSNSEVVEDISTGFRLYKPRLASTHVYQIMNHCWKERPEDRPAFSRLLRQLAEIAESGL
Briefly: Inhibition of ITK.

In series [20] the target is High affinity nerve growth factor receptor (Homo sapiens, UniProt P04629). Put plainly: Inhibition of TrkA.
Series [21] has as its target Mitogen-activated protein kinase 14 (Homo sapiens, UniProt Q16539). Put plainly: Inhibition of p38alpha.
Series [22] has as its target Tyrosine-protein kinase JAK2 (Homo sapiens, UniProt O60674). Briefly: Inhibition of Jak2.
Series [23] addresses Tyrosine-protein kinase JAK1 (Homo sapiens, UniProt P23458). Briefly: Inhibition of Jak1.
Another series addresses T4, Ephrin type-B receptor 4 (Homo sapiens, UniProt P54760).
T4 sequence (P54760 whole entry): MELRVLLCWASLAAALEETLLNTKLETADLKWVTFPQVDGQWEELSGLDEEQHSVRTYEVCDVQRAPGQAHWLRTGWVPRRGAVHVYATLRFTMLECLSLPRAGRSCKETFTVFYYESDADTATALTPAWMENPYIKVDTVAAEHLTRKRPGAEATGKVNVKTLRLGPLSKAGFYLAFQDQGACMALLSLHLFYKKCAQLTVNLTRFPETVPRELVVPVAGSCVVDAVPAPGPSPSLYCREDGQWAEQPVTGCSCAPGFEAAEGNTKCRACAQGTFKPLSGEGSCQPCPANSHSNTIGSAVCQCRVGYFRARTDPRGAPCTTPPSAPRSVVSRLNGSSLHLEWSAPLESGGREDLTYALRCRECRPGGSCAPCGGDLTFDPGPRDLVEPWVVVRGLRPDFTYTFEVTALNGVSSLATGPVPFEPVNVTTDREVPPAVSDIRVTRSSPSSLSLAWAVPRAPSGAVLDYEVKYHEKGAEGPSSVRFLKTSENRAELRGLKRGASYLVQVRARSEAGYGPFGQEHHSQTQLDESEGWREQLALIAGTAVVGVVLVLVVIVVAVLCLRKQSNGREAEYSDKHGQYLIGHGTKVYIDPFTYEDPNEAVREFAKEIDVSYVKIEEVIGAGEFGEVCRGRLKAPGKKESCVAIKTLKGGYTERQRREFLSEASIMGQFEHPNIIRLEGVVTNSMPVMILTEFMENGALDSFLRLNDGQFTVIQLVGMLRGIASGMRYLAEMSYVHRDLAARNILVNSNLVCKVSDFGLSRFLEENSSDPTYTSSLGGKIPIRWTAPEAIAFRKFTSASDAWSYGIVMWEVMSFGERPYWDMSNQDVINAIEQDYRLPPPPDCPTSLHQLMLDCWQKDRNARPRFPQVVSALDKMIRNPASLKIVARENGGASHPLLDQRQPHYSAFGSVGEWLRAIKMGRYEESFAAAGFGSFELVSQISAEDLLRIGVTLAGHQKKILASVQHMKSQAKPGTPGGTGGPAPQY
Put plainly: Inhibition of EpHB4.

In series [24] the target is Tyrosine-protein kinase Fgr (Homo sapiens, UniProt P09769). Put plainly: Inhibition of FGR.
Sequence of Tyrosine-protein kinase Fgr (P09769 whole entry): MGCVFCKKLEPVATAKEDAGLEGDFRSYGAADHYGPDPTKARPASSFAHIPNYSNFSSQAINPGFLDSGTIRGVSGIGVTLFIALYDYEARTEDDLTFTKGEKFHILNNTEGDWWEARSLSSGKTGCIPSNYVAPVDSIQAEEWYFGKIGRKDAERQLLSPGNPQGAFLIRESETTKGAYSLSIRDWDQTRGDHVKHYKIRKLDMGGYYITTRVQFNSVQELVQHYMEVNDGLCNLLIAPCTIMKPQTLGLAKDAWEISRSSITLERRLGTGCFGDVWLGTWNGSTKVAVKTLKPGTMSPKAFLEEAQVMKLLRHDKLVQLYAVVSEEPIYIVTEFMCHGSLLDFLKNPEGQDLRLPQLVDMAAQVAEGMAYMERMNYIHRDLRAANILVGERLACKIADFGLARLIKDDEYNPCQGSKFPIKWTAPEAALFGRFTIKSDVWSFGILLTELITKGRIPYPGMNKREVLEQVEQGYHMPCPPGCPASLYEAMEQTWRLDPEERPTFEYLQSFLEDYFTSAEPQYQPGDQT

Where only a bound is given, the exact number is not on record here.

Sequence of Tyrosine-protein kinase Lck (P06239 whole entry): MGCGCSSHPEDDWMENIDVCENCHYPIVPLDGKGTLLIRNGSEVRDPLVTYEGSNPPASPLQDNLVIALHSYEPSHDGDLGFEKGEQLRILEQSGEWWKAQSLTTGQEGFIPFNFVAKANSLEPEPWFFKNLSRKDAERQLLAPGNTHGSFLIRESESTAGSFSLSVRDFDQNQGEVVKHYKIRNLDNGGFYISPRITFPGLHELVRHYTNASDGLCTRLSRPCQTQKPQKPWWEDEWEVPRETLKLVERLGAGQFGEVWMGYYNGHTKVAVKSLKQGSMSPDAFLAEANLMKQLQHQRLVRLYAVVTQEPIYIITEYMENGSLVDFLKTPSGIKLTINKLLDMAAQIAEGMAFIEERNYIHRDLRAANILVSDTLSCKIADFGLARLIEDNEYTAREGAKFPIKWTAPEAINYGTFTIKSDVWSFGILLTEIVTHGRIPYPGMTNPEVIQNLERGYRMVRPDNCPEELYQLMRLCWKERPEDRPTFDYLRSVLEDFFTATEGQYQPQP
Sequence of Vascular endothelial growth factor receptor 2 (P35968 whole entry): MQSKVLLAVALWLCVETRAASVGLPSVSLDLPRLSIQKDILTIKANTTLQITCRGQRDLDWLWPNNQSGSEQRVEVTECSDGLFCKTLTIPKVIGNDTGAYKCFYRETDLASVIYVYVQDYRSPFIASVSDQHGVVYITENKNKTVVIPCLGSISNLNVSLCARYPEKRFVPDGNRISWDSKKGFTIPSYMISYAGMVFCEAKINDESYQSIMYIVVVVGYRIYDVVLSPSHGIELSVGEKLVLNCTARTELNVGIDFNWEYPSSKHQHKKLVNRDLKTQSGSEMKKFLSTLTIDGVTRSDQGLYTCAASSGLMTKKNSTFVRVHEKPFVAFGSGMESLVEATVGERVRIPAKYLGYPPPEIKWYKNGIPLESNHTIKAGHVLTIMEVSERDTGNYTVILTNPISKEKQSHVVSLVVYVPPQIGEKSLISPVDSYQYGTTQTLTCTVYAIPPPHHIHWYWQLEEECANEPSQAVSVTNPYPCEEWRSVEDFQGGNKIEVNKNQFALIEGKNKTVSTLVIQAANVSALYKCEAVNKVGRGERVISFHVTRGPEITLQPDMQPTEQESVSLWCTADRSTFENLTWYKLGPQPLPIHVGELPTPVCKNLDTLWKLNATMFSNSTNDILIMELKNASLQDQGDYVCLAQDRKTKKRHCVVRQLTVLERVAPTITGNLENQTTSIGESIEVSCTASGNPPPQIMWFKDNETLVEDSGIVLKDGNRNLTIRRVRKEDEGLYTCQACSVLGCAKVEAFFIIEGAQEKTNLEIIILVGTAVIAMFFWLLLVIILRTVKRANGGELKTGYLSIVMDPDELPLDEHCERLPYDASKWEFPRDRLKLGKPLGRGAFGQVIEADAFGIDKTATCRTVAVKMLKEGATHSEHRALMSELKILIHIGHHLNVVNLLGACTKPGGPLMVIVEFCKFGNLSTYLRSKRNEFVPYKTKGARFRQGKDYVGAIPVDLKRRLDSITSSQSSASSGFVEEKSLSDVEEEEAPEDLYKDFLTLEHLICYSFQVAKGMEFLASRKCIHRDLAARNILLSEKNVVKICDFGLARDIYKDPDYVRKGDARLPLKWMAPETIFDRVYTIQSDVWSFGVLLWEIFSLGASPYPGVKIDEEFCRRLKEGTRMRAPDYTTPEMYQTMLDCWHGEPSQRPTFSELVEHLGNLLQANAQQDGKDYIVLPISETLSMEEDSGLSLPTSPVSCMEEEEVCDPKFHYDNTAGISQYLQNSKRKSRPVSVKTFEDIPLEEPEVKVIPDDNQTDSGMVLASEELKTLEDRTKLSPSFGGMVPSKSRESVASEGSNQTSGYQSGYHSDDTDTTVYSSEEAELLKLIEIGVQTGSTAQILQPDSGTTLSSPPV
Sequence of Angiopoietin-1 receptor (Mus musculus) (Q02858 whole entry): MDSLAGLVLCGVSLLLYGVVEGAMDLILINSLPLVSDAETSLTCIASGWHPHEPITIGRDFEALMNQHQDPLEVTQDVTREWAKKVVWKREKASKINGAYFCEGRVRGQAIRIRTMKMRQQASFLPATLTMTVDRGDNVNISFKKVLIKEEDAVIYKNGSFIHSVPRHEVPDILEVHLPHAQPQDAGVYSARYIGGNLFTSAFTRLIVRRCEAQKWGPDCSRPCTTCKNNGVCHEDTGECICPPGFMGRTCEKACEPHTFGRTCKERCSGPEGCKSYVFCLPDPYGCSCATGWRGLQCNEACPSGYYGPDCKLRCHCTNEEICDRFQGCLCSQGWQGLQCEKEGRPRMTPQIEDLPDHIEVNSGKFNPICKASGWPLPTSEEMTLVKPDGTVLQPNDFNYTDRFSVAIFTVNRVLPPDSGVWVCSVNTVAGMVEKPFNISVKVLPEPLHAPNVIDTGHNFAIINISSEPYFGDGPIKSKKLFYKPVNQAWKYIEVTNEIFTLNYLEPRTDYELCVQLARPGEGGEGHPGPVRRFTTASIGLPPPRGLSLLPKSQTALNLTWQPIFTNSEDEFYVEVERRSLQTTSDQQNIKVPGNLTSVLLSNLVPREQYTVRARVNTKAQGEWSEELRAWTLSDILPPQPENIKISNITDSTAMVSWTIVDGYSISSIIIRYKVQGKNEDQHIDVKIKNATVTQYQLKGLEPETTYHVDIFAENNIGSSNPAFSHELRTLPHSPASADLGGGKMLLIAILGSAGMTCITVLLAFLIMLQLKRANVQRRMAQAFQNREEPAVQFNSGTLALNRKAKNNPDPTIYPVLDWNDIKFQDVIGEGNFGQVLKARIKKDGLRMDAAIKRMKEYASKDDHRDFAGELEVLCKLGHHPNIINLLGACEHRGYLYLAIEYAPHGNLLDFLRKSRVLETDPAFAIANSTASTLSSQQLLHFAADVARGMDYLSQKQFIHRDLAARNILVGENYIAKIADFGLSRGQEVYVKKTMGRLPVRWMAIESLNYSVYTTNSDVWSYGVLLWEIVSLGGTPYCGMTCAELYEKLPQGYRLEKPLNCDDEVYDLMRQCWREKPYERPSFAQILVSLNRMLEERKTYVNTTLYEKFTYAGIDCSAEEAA
Sequence of Tyrosine-protein kinase CSK (P41240 whole entry): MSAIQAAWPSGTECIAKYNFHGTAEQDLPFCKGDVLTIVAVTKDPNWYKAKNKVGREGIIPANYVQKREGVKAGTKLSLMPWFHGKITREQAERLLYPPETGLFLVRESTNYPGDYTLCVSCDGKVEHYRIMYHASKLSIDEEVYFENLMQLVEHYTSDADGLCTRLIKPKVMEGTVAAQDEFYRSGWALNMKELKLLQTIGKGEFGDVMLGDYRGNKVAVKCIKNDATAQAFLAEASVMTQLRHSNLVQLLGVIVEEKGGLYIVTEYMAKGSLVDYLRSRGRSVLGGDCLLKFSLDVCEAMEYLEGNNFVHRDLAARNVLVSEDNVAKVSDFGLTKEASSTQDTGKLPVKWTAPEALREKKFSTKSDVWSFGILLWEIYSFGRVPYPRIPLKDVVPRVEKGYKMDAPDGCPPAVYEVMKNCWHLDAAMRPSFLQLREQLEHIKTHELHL

The compound `Cc1ccc(C(=O)Nc2cc(C(F)(F)F)ccc2N2CCCCC2)cc1C#Cc1cnc(N)nc1` gave an IC50 in series [1] above 1000 nM.

In series [1], `Nc1ncc(C#Cc2cccc(C(=O)Nc3cccc(C(F)(F)F)c3)c2)cn1` came in with an IC50 below 1 nM.

For the compound `Cc1ccc(C(=O)Nc2cccc(C(F)(F)F)c2)cc1C#Cc1cnc2[nH]cnc2c1`, the IC50 in series [2] and in [1] was below 1 nM each time.

On to `Nc1ncc(C#Cc2ccc(F)c(C(=O)Nc3cc(C(F)(F)F)ccc3N3CCC[C@H](N)C3)c2)cn1`, for which the half-life in series [3] is 11.4 h. In addition, the bioavailability in [4] amounted to 51%. Besides, the clearance in series [5] is 5.33 mL/min/kg. This compound also came in with an AUC(0-inf) in series [6] of 9300 ng·h/mL. Moreover, the Vd in series [7] is 4.6 L/kg.

Take `CN(C)[C@H]1CCCN(c2ccc(C(F)(F)F)cc2NC(=O)c2cc(C#Cc3cnc(N)nc3)ccc2F)C1`: the concentration for half-maximal inhibition (IC50) was above 6700 nM in [8]; 1800 nM in series [9]; 180 nM in [10]; 910 nM in [11]; 2800 nM in series [14]; 5 nM against Angiopoietin-1 receptor [16]. The IC50 at Angiopoietin-1 receptor [17] is 8 nM; in series [18], 1700 nM; against Insulin receptor it was 2900 nM; in series [19], above 5000 nM; in series [20] it was 18 nM; in series [21], above 8300 nM. For the same compound, the IC50 was 550 nM in [22], 1300 nM in series [23], 290 nM at Ephrin type-B receptor 4 and 43 nM in series [24]. Moreover, the half-life in [3] was 7.9 h. In series [12], this compound gave an inhibition of 50%. For the same compound, in series [13], the Activity result is “Dose-dependent effect”. In addition, the bioavailability in series [4] was 39%. Further, in [15], the fraction unbound is 0.021. Moreover, the concentration in the series on Mus musculus turned out to be 1660 nM. Also, the clearance in series [5] was 40 mL/min/kg. The same compound had an AUC(0-inf) in series [6] of 800 ng·h/mL. Moreover, the Vd in series [7] was found to be 11.8 L/kg.

For the compound `Cc1ccc(C(=O)Nc2cccc(C(F)(F)F)c2)cc1-c1ccc2nc(N)ncc2c1`, the IC50 is below 1 nM in series [2] and 1 nM against Angiopoietin-1 receptor [16].

In turn, `Nc1ncc(C#Cc2cccc(C(=O)Nc3cc(C(F)(F)F)ccc3N3CCCCC3)c2)cn1` came in with an IC50 in series [1] above 1000 nM.

On to `CN(C)[C@@H]1CCCN(c2ccc(C(F)(F)F)cc2NC(=O)c2cc(C#Cc3cnc(N)nc3)ccc2F)C1`, for which the IC50 at Angiopoietin-1 receptor [16] came out at 44 nM; at Angiopoietin-1 receptor [17], 98 nM.

On to `CN[C@H]1CCCN(c2ccc(C(F)(F)F)cc2NC(=O)c2cc(C#Cc3cnc(N)nc3)ccc2F)C1`, for which the half-life in [3] was 10.6 h. In series [4], this compound showed a bioavailability of 54%. Also, in series [5], the clearance is 2.5 mL/min/kg. In series [6], this compound came in with an AUC(0-inf) of 18600 ng·h/mL. Also, the Vd in [7] is 2.2 L/kg.

In [2], `COc1ccc(C#Cc2cnc(N)nc2)cc1C(=O)Nc1cc(C(F)(F)F)ccc1N1CCCCC1` showed an IC50 above 25000 nM.

One may read the IC50 as the midpoint of a concentration-inhibition curve. As a reminder, the half-life is the time needed for the level to fall by half in the phase considered. Lower therefore signals rapid decline. What is called bioavailability is the share of a dose that reaches the circulation, judged against a reference dose that is usually intravenous. A word on the clearance: it is the volume of plasma or blood freed of the substance per unit of time. As a reminder, the AUC(0-inf) is total exposure, with the tail of the curve extrapolated. The low end stands for less exposure, the high end for more exposure. For orientation: inhibition means the change of the read-out against control, counted positive when it falls. A higher inhibition goes with a response far below the control.
